Test results taken from US7588885B2, “Use of biocistronic DNA constructs for identifying compounds that inhibit IRES-dependent translation” (Chung Yuan Christian University, priority 2004, dated 2009).
≈ marks a conversion by molar mass, not a printed value.

Legend:
[1] = test system: CAP-dependent translation; assay: Bicistronic pGS-EMCV reporter assay in Cos-1 cells, β-gal activity (CAP-dependent translation); format: cell-based, African green monkey
Description: (§1) Plasmid PGS-EMCV is constructed by inserting into the plasmid pTriEx-4 (obtained from Novagene) template sequences of two reporter genes (cistrons), i.e., β-galactosidase (β-gal), and secreted human placental alkaline phosphatase (SEAP), with a promoter upstream of the first cistron (i.e., β-gal) and an EMCV-IRES sequence downstream of it, between the first cistron and the second cistron (i.e., SEAP). Plasmid pGS-EV71 and pGS-HCV are prepared in similar manner except an EV71-IRES sequence or a HCV-IRES sequence was used to replace the EMCV-IRES sequence.
(§2) The kidney cells from African green monkey, i.e., Cos-1 cells, were transfected with the bicistronic DNA constructs prepared according to Example 1. The method of transfection is well known in the art. […]
(§3) Reporter proteins activities, i.e., secreted Human Alkaline Phosphatase (SEAP) and β-galactosidase (β-gal), were measured with BD Great EscApe SEAP Detection kit (Cat. No. K2041-1, available from Clontech) and Luminescent β-gal Detection kit (Cat. No. K2048-1, available from Clontech), respectively, according to the manufacturer's instruction.

[2] = test system: CAP-dependent translation; assay: Bicistronic pGS-EV71 reporter assay in Cos-1 cells, β-gal activity (CAP-dependent translation); format: cell-based, African green monkey
Description: as §1, §2, §3

[3] = test system: IRES of EMCV; assay: Bicistronic pGS-EMCV reporter assay in Cos-1 cells, SEAP activity (IRES-dependent translation); format: cell-based
Description: as §1
(§4) The kidney cells from African green monkey, i.e., Cos-1 cells, were transfected with the bicistronic DNA constructs prepared according to Example 1. The method of transfection is well known in the art. Briefly, a transfecting stock solution was prepared as follows: 1) solution A: 1 μg of the bicistronic DNA constructs of Example 1 was dissolved in serum free culturing medium, with its final volume adjusted to be 50 μl; 2) solution B: 2 μl of lipofectAMINE 2000 (obtained from Invitrogen) was mixed with 50 μl of serum free culturing medium; 3) mixed solution A with solution B. Cos-1 cells (0.5−2×10^5/well, 24 wells) were first incubated with 500 μl of the serum free culturing medium for a period of 20 min, and then 102 μl of the transfecting stock solution prepared above was added. The transfected cells were then return to culture environment (37°C., 5% CO2). After 12 hrs, the culturing medium were replaced by a medium containing fetal bovine serum and antibiotics, the transfected cells were continued to culture for another 12 hrs before used in the following compound screening procedure.
The candidate compounds prepared according to the methods described above were dissolved in PBS, with stock concentration to be 10 mg/ml. These stock solutions were then diluted to proper ranges according to various screening conditions required. […] Then, the identified tested compound can be used in preparation of a medicament for treating EV or EMCV infection.
as §3

[4] = test system: EV-71; assay: EV-71 whole cell antiviral activity; format: cell-based; details: Enterovirus A, EV71
[5] = test system: IRES of HCV; assay: Bicistronic pGS-HCV reporter assay (IRES of HCV); format: cell-based, HCV (hepatitis C virus); details: data not shown
Description: as §1, §2, §3

[6] = test system: IRES of EV71; assay: cells; format: cell-based; details: for selective inhibition on IRES-dependent translation without affecting CAP-dependent translation (screening, FIG. 2): Cos-1 cells transfected with EV-71 IRES construct, amantadine 0.1 mg/ml, IFN-α 10 units, stavudine 0.05 mg/ml, 12 hrs
Description: as §1, §4
The candidate compounds prepared according to the methods described above were dissolved in PBS, with stock concentration to be 10 mg/ml. These stock solutions were then diluted to proper ranges according to various screening conditions required.
as §3

NC12CC3CC(CC(C3)C1)C2 [amantadine, 1-Aminoadamantane]
effect on CAP-dependent translation activity ([1]; 0.25 mg/ml, pGS-EMCV cells (FIG. 4)): relatively no effect
effect on β-gal activities ([1]; pGS-EMCV transfected cells, 0.01 mg/ml to 0.25 mg/ml (FIG. 4A)): little or no effect
effect on CAP-dependent translation activity ([2]; 0.25 mg/ml, pGS-EV71 cells (FIG. 3)): relatively no effect
effect on β-gal activities ([2]; pGS-EV71 transfected cells, 0.01 mg/ml to 0.25 mg/ml (FIG. 3A)): little or no effect
IC50 ([3]; Cardiovirus A, COS-1, read-out: calculated IC50 for inhibition of IRES-dependent translation of EMCV): ~45 mg/L (≈ 298 µM)
inhibition at 250 µg/mL ([3]; Cardiovirus A, COS-1, read-out: inhibition of IRES-dependent translation activity): ~80%
gene inhibition (EMCV-IRES mediated gene expression) ([3]; dose of about 0.05 mg/ml (FIG. 5B)): 20%
gene inhibition (EMCV-IRES mediated gene expression) ([3]; dose of about 0.25 mg/ml (FIG. 5B)): 80%
effect on SEAP activities ([3]; pGS-EMCV transfected cells, 0.01 mg/ml to 0.25 mg/ml (FIG. 4B)): inhibits SEAP activities
IC50 [4]: ~8820 mg/L (≈ 58300 µM)
effects on IRES of HCV [5]: no effects
selective inhibition on IRES-dependent translation without affecting CAP-dependent translation (screening, FIG. 2) [6]: selective inhibition on IRES-dependent translation without affecting CAP-dependent translation
IC50 ([6]; Enterovirus A, EV71, COS-1, read-out: calculated IC50 for inhibition of IRES-dependent translation of EV71): ~55 mg/L (≈ 364 µM)
inhibition at 250 µg/mL ([6]; Enterovirus A, EV71, COS-1, read-out: inhibition of IRES-dependent translation activity): ~80%
gene inhibition (EV71-IRES mediated gene expression) ([6]; dose of about 0.01 mg/ml (FIG. 5A)): 20%
gene inhibition (EV71-IRES mediated gene expression) ([6]; dose of about 0.25 mg/ml (FIG. 5A)): 80%
effect on SEAP activities ([6]; pGS-EV71 transfected cells, 0.01 mg/ml to 0.25 mg/ml (FIG. 3B)): inhibits SEAP activities

Cc1cn([C@H]2C=C[C@@H](CO)O2)c(=O)[nH]c1=O [stavudine]
selective inhibition on IRES-dependent translation without affecting CAP-dependent translation (screening, FIG. 2) [6]: only amantadine demonstrates selective inhibition
